Source: patent US20230094568A1, “METHOD FOR SUPPRESSING DIFFERENTIATION OF PLURIPOTENT STEM CELLS” (KANEKA CORPORATION, priority 2020, published 2023)

Test system: Human iPS cell WTC-11 strain
Assay: Quantitative real-time PCR of marker genes after suspension culture (Example 2)
Format: cell-based
Settings: WTC-11, day 10 of suspension culture, inhibitor(s) in medium
Method: After the EDTA solution was sucked up, StemFit® AK02N medium was added to the dish, cells were detached with a cell scraper, and then dispersed into single cells by pipetting. […] Into a 6-well plate for suspension culture (Sumitomo Bakelite Co., Ltd.), 4 mL of the cell suspension was seeded per well. On a rotary shaker (Optima Co., Ltd.), the plate into which the cells had been seeded was rotated along a circle having a rotation width (diameter) of 25 mm in the horizontal plane at a speed of 90 rpm, and suspension culture was performed under an environment at 37° C. and 5% CO2. Subculture was performed on day 5 of culture as the day on which the cells were seeded was defined as day 0 of culture, and suspension culture was performed until day 10 of culture. Medium exchange was performed on day 2, 4, 7, and 9 of culture. […] On day 5 of culture, a cell aggregate and culture supernatant were collected from each well into a centrifuge tube, left to stand for about 5 minutes to precipitate the cell aggregate, and the culture supernatant was removed. […]
Quantitative real-time PCR analysis was performed with a procedure shown in the following. […] Quantitative real-time PCR analysis was carried out by using a TaqMan® QuantStudio3 real-time PCR system (Thermo Fisher Scientific).

SMILES	ACTB-normalized relative gene expression level (2^−ΔCt) OCT4
O=C(Nc1cccc2cccnc12)c1ccc(N2C(=O)[C@@H]3[C@H](C2=O)[C@@H]2C=C[C@H]3C2)cc1 [Comparative Example 2, 4-(1,3,3a,4,7,7a-hexahydro-1,3-dioxo-4,7-methano-2H-isoindol-2-yl)-N-8-quinolinyl-benzamide]	2.05
COc1ccc2c(c1)c(C1=C(c3c[nH]c4ccccc34)C(=O)NC1=O)cn2CCCN(C)C [Comparative Example 3, 3-[1-[3-(dimethylamino)propyl]-5-methoxy-1H-indol-3-yl]-4-(1H-indol-3-yl)-1H-pyrrole-2,5-dione]	3.30 × 10^−3
